{
  "source": "patent US8192962B2",
  "about": "“Processes for detecting toxic substances” (Daikin Industries, Ltd., priority 2001, dated 2012)",
  "tested_on": "Stress protein genes",
  "assay": "DNA chip mRNA expression in yeast, stress protein genes (Table 6)",
  "type": "cell-based, Saccharomyces cerevisiae S288C",
  "protocol": "Yeast (Saccharomyces cerevisiae S288C (α SUC2mal mel gap2 CUP1)) were incubated at 25° C. on YPD medium (yeast extract 1%, polypepton 2%, glucose 2%). One of toxic chemical substances was added to the cells at logarithmic growth phase, and the cells were further incubated for two hours. Cells were cultured without any chemical substance in the same condition, and were used as control. Concentrations of the chemical substances were defined to inhibit the growth of the yeast but not lead to death.\nAfter completion of the incubation, the culture was centrifuged to collect the cells. To the cells, sodium acetate buffer (50 mM sodium acetate, 10 mM EDTA, 1% SDS) was added, and the mixture was shaken at 65° C. for five minutes, followed by returning to room temperature, and obtaining the supernatant, of which the procedures were repeated two times. To the supernatant, ½ amount of a solution of phenol/chloroform was added, and the mixture was centrifuged to give a supernatant, which was added with an equal amount of chloroform, and the mixture was centrifuged to give a supernatant. To the supernatant, an equal amount of isopropanol containing 0.3 M sodium acetate was added, and the mixture was allowed to stand at room temperature for 30 minutes, after which the mixture was centrifuged to give a sediment of the whole RNAs. Seventy % ethanol was added to the sediment, and the mixture was again centrifuged to give a sediment, which was then dried and dissolved in water. mRNA was isolated from the whole RNAs as followings. In view of the fact that a poly A chain is attached to the 3′ terminus of mRNA, a polynucleotide having a poly T structure which was immobilized on the surface of latex beads was used to trap the mRNA, and then the mRNA was washed and eluted with spine column (Oligotex-dT30<Super>mRNA Purification Kit, Takara). Reverse transcription of the mRNA was conducted with a reverse transcriptase (Super Script II Reverse Transcriptase; catalogue No. 18064-014, GibcoBRL) using fluorescence-labeled nucleotides to give cDNAs that were introduced with Cy3-dUTP or Cy5-dUTP during the reverse transcription.\nThe labeled cDNAs were dissolved in TE buffer (10mM Tris-HCl/1 mM EDTA, pH8.0), and the solution was dropped on the DNA chip containing the whole genes of yeast (DNA Chip Research Inc. Japan) so that the cDNAs were hybridized on the DNA chip at 65° C. for over 12 hours. The fluoresces intensity of the DNA chip was read with a scanner, and the ratio relative to the fluorescence intensity resulting from the absence of chemical substance was estimated as the following, which is shown in Tables 1 to 9: […]",
  "data": [
    {"compound": "[Cl][Pb][Cl]", "note": "[(4), PbCl2]", "values": [
      {"measurement": "The level of expressed mRNA in the presence of chemical substance/The level of expressed mRNA in the absence of chemical substance", "setting": "yeast gene YIL033C", "value": 1.3},
      {"measurement": "The level of expressed mRNA in the presence of chemical substance/The level of expressed mRNA in the absence of chemical substance", "setting": "yeast gene YIR037W", "value": 2.3},
      {"measurement": "The level of expressed mRNA in the presence of chemical substance/The level of expressed mRNA in the absence of chemical substance", "setting": "yeast gene YIR038C", "value": 2.0},
      {"measurement": "The level of expressed mRNA in the presence of chemical substance/The level of expressed mRNA in the absence of chemical substance", "setting": "yeast gene YJL128C", "value": 0.8},
      {"measurement": "The level of expressed mRNA in the presence of chemical substance/The level of expressed mRNA in the absence of chemical substance", "setting": "yeast gene YJL158C", "value": 1.5},
      {"measurement": "The level of expressed mRNA in the presence of chemical substance/The level of expressed mRNA in the absence of chemical substance", "setting": "yeast gene YJL159W", "value": 1.1},
      {"measurement": "The level of expressed mRNA in the presence of chemical substance/The level of expressed mRNA in the absence of chemical substance", "setting": "yeast gene YJL165C", "value": 1.6},
      {"measurement": "The level of expressed mRNA in the presence of chemical substance/The level of expressed mRNA in the absence of chemical substance", "setting": "yeast gene YJR090C", "value": 0.8},
      {"measurement": "The level of expressed mRNA in the presence of chemical substance/The level of expressed mRNA in the absence of chemical substance", "setting": "yeast gene YKL161C", "value": 2.2},
      {"measurement": "The level of expressed mRNA in the presence of chemical substance/The level of expressed mRNA in the absence of chemical substance", "setting": "yeast gene YKL163W", "value": 1.9},
      {"measurement": "The level of expressed mRNA in the presence of chemical substance/The level of expressed mRNA in the absence of chemical substance", "setting": "yeast gene YKL164C", "value": 0.9},
      {"measurement": "The level of expressed mRNA in the presence of chemical substance/The level of expressed mRNA in the absence of chemical substance", "setting": "yeast gene YKL210W", "value": 0.7},
      {"measurement": "The level of expressed mRNA in the presence of chemical substance/The level of expressed mRNA in the absence of chemical substance", "setting": "yeast gene YKR053C", "value": 1.2},
      {"measurement": "The level of expressed mRNA in the presence of chemical substance/The level of expressed mRNA in the absence of chemical substance", "setting": "yeast gene YLL024C", "value": 0.8},
      {"measurement": "The level of expressed mRNA in the presence of chemical substance/The level of expressed mRNA in the absence of chemical substance", "setting": "yeast gene YLL026W", "value": 1.7},
      {"measurement": "The level of expressed mRNA in the presence of chemical substance/The level of expressed mRNA in the absence of chemical substance", "setting": "yeast gene YLL039C", "value": 1.2},
      {"measurement": "The level of expressed mRNA in the presence of chemical substance/The level of expressed mRNA in the absence of chemical substance", "setting": "yeast gene YLL060C", "value": 2.6},
      {"measurement": "The level of expressed mRNA in the presence of chemical substance/The level of expressed mRNA in the absence of chemical substance", "setting": "yeast gene YLR006C", "value": 6.2},
      {"measurement": "The level of expressed mRNA in the presence of chemical substance/The level of expressed mRNA in the absence of chemical substance", "setting": "yeast gene YLR109W", "value": 0.9},
      {"measurement": "The level of expressed mRNA in the presence of chemical substance/The level of expressed mRNA in the absence of chemical substance", "setting": "yeast gene YLR259C", "value": 1.6},
      {"measurement": "The level of expressed mRNA in the presence of chemical substance/The level of expressed mRNA in the absence of chemical substance", "setting": "yeast gene YML007W", "value": 1.3},
      {"measurement": "The level of expressed mRNA in the presence of chemical substance/The level of expressed mRNA in the absence of chemical substance", "setting": "yeast gene YML070W", "value": 1.9},
      {"measurement": "The level of expressed mRNA in the presence of chemical substance/The level of expressed mRNA in the absence of chemical substance", "setting": "yeast gene YMR021C", "value": 1.1},
      {"measurement": "The level of expressed mRNA in the presence of chemical substance/The level of expressed mRNA in the absence of chemical substance", "setting": "yeast gene YMR173W", "value": 0.9},
      {"measurement": "The level of expressed mRNA in the presence of chemical substance/The level of expressed mRNA in the absence of chemical substance", "setting": "yeast gene YMR186W", "value": 0.9},
      {"measurement": "The level of expressed mRNA in the presence of chemical substance/The level of expressed mRNA in the absence of chemical substance", "setting": "yeast gene YNL064C", "value": 1.1},
      {"measurement": "The level of expressed mRNA in the presence of chemical substance/The level of expressed mRNA in the absence of chemical substance", "setting": "yeast gene YNL160W", "value": 2.0},
      {"measurement": "The level of expressed mRNA in the presence of chemical substance/The level of expressed mRNA in the absence of chemical substance", "setting": "yeast gene YNL241C", "value": 1.0},
      {"measurement": "The level of expressed mRNA in the presence of chemical substance/The level of expressed mRNA in the absence of chemical substance", "setting": "yeast gene YNR076W", "value": 1.0},
      {"measurement": "The level of expressed mRNA in the presence of chemical substance/The level of expressed mRNA in the absence of chemical substance", "setting": "yeast gene YOL064C", "value": 0.6},
      {"measurement": "The level of expressed mRNA in the presence of chemical substance/The level of expressed mRNA in the absence of chemical substance", "setting": "yeast gene YOL161C", "value": 1.4},
      {"measurement": "The level of expressed mRNA in the presence of chemical substance/The level of expressed mRNA in the absence of chemical substance", "setting": "yeast gene YOR008C", "value": 1.1},
      {"measurement": "The level of expressed mRNA in the presence of chemical substance/The level of expressed mRNA in the absence of chemical substance", "setting": "yeast gene YOR009W", "value": 0.7},
      {"measurement": "The level of expressed mRNA in the presence of chemical substance/The level of expressed mRNA in the absence of chemical substance", "setting": "yeast gene YOR010C", "value": 0.6},
      {"measurement": "The level of expressed mRNA in the presence of chemical substance/The level of expressed mRNA in the absence of chemical substance", "setting": "yeast gene YOR027W", "value": 0.8},
      {"measurement": "The level of expressed mRNA in the presence of chemical substance/The level of expressed mRNA in the absence of chemical substance", "setting": "yeast gene YOR208W", "value": 2.9},
      {"measurement": "The level of expressed mRNA in the presence of chemical substance/The level of expressed mRNA in the absence of chemical substance", "setting": "yeast gene YPL059W", "value": 1.3},
      {"measurement": "The level of expressed mRNA in the presence of chemical substance/The level of expressed mRNA in the absence of chemical substance", "setting": "yeast gene YPL106C", "value": 1.1},
      {"measurement": "The level of expressed mRNA in the presence of chemical substance/The level of expressed mRNA in the absence of chemical substance", "setting": "yeast gene YPL140C", "value": 1.0},
      {"measurement": "The level of expressed mRNA in the presence of chemical substance/The level of expressed mRNA in the absence of chemical substance", "setting": "yeast gene YPL194W", "value": 1.1},
      {"measurement": "The level of expressed mRNA in the presence of chemical substance/The level of expressed mRNA in the absence of chemical substance", "setting": "yeast gene YPL223C", "value": 5.1},
      {"measurement": "The level of expressed mRNA in the presence of chemical substance/The level of expressed mRNA in the absence of chemical substance", "setting": "yeast gene YPL240C", "value": 0.9},
      {"measurement": "The level of expressed mRNA in the presence of chemical substance/The level of expressed mRNA in the absence of chemical substance", "setting": "yeast gene YPR005C", "value": 3.8},
      {"measurement": "The level of expressed mRNA in the presence of chemical substance/The level of expressed mRNA in the absence of chemical substance", "setting": "yeast gene YPR026W", "value": 1.3}
    ]}
  ]
}
